“And” between values parts separate entries of the source, which are not always exact repeats. Equal entries are not always repeated.
Molecular target: T1, PfCRT variant E278A (Plasmodium falciparum, UniProt Q9N623, A220S/E278A/I356T/K76T/M74I/N326S/N75E/Q271E/R371I)
T1 sequence (Q9N623 1-424 M74I/N75E/K76T/A220S/Q271E/E278A/N326S/I356T/R371I): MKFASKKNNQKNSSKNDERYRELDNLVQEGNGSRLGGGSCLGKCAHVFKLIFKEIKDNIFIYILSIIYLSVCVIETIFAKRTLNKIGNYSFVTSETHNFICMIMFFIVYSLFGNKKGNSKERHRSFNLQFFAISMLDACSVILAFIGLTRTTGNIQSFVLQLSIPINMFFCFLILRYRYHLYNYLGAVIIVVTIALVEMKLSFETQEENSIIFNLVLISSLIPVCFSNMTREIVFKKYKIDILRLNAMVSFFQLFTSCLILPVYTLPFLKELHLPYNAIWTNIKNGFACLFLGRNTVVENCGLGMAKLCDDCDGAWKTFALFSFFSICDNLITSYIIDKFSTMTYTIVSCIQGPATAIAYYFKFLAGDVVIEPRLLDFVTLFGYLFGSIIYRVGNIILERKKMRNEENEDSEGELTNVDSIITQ
Assay: CQ uptake assay, oocytes expressing E278A
Assay type: cell-based
Protocol: Site-directed mutagenesis of PfCRT^Dd2 was performed as described using the megaprimer method with overlap extension[21],[54]. The primer pairs used are listed in Supplementary Table 6. Please note that a codon-optimized and oocyte-adapted version of PfCRT^Dd2 was used[22] (Supplementary Fig. 16). The resulting DNA fragment was cloned into the SP64T expression vector and verified by sequencing.
Oocytes were obtained as described previously. Briefly, adult (>2 years old) female X. laevis frogs (NASCO) were anesthetized in a cooled solution of ethyl 3-amino benzoate methanesulfonate (0.1%, w/v), followed by a surgical removal of parts of the ovary. The ovary lobes were carefully dissected and small pieces of oocytes were incubated in Ca^2+-free ND96 buffer (96 mM NaCl, 2 mM KCl, 1 mM MgCl2 buffered with 5 mM HEPES/NaOH, pH 7.5) supplemented with collagenase D (0.1%, w/v; Roche), BSA (0.5%, w/v), and 9 mm Na2HPO4 at 18 °C for 14-16 h while gentle shaking. After incubation, the oocytes were carefully washed several times with ND96 buffer (96 mM NaCl, 2 mM KCl, 1.8 mM CaCl2, 1 mM MgCl2 buffered with 5 mM HEPES/NaOH, pH 7.5) supplemented with 100 mg l^−1 gentamycin). Defolliculated and healthy-looking stage V-VI oocytes were manually selected for RNA microinjection. The RNA was generated as following: The codon-optimized sequences of PfCRT variants were cloned into the pSP64T expression vector. After vector linearization using the restriction endonucleases BamHI or SalI (New England Biolabs), transcription was performed using the in vitro SP6 mMessage mMachine Kit (Ambion)[34]. The obtained RNA was kept at −80 °C and diluted with nuclease-free water to a concentration of 0.6 μg μl^−1. Precision-bore glass capillary tubes (3.5-inch glass capillaries; Drummond Scientific Co.) were pulled on a vertical puller (P-87 Flaming/Brown micropipette puller, Sutter Instrument Co.), graduated, and placed on a microinjector (Nanoject II Auto-Nanoliter Injector, Drummond Scientific Co.). 50 nl of nuclease-free water alone (control oocytes) or 50 nl of 0.6 μg μl^−1 RNA were injected under stereomicroscopic control. Injected oocytes were incubated for 46–72 h at 18 °C with twice-daily buffer changes before usage in experiments.
Drug uptake assays were performed as described previously[21],[22],[24],[34]. […] The direction of radio-labeled drug transport is here from the mostly acidic extracellular solution (pH 4.5 or 6.0, as indicated) into the oocyte cytosol (pH ∼ 7.2), which corresponds to the efflux of drug from the acidic digestive vacuole (pH 5.2) into the parasite cytoplasm (pH 7.2). The topology of PfCRT in the oolemma is such that both the N- and C-terminus face the extracellular milieu[3],[22]. In the parasite, the N- and C-terminus face the lumen of the digestive vacuole. CQ uptake kinetics were performed by incubating oocytes in ND96 buffer adjusted to a pH of 4.5, 5.0, 5.5, or 6.0 and supplemented with 50 nM [^3H]CQ and one of 7 different CQ concentrations (10 µM, 50 µM, 100 µM, 200 µM, 300 µM, 400 µM, 500 µM CQ). The reaction was stopped at the 60 min time point, which is in the linear uptake range[22],[34] (Supplementary Fig. 17). […] The radioactivity of each sample was measured using a liquid scintillation analyzer Tri-Carb 4910 TR (PerkinElmer). Oocytes that were injected with water instead of RNA were analyzed in parallel, representing the uptake of a drug by diffusion and/or endogenous permeation pathways. […]

[1] = E278A, 50 µM CQ, 1 h, mean ± SEM

CCN(CC)CCCC(C)Nc1ccnc2cc(Cl)ccc12 (centres unmarked) [CQ, chloroquine]
Activity at pH 4.5 [1]: 1.17 ± 0.07 pmol h-1 oocyte-1 | Activity at pH 6.0 [1]: 2.21 ± 0.24 pmol h-1 oocyte-1 | R-value (E278A, CQ transport at pH 4.5 / pH 6.0): 0.56 ± 0.10 | E278A transport activity pH 4.5 (pH 4.5, single replicates, Fig 1d left): 1.19 pmol oocyte-1 h-1 and 1.00 pmol oocyte-1 h-1 and 1.31 pmol oocyte-1 h-1 | E278A transport activity pH 6.0 (pH 6.0, single replicates, Fig 1d left): 2.40 pmol oocyte-1 h-1 and 2.59 pmol oocyte-1 h-1 and 1.63 pmol oocyte-1 h-1
